Measured values reported in US20250026759A1 (Merck Sharp & Dohme LLC, priority 2023, published 2025).

These compounds were tested on PBMCs infected with VSV-G pseudotyped HIV virus (VSV-G/pNLG1-P2A-ΔEnv) (assay: cells). Details: Homo sapiens, PBMC, read-out: TACK EC50.
Format: cell-based, human

| Structure (SMILES) | EC50 |
| --- | --- |
| CC(F)(F)[C@@]1(C#CC2CC2)NC(=O)Nc2cc(Cn3ccc(S(N)(=O)=O)n3)c(F)cc21 [Example 120, (S)-1-((4-(cyclopropylethynyl)-4-(1,1-difluoroethyl)-6-fluoro-2-oxo-1,2,3,4-tetrahydroquinazolin-7-yl)methyl)-1H-pyrazole-3-sulfonamide] | 61.7 nM |
| CC(F)(F)[C@@]1(C#CC2CC2)NC(=O)Nc2cc(Cn3cc(C(F)F)cn3)c(F)cc21 [Example 121, (S)-4-(cyclopropylethynyl)-4-(1,1-difluoroethyl)-7-((4-(difluoromethyl)-1H-pyrazol-1-yl)methyl)-6-fluoro-3,4-dihydroquinazolin-2(1H)-one] | 67.9 nM |
| Cn1cnn(Cc2cc3c(cc2F)[C@@](C#CC2CC2)(C(C)(F)F)NC(=O)N3)c1=O [Example 122, (S)-4-(cyclopropylethynyl)-4-(1,1-difluoroethyl)-6-fluoro-7-((4-methyl-5-oxo-4,5-dihydro-1H-1,2,4-triazol-1-yl)methyl)-3,4-dihydroquinazolin-2(1H)-one] | 74.2 nM |
| COc1cnn(Cc2cc3c(cc2Cl)[C@@](C#CC2CC2)(C(F)(F)F)NC(=O)N3)c1 [Example 123, (S)-6-chloro-4-(cyclopropylethynyl)-7-((4-methoxy-1H-pyrazol-1-yl)methyl)-4-(trifluoromethyl)-3,4-dihydroquinazolin-2(1H)-one] | 79 nM |
| CN(C)Cc1ccn(Cc2cc3c(cc2F)[C@@](C#CC2CC2)(C(C)(F)F)NC(=O)N3)n1 [Example 126, (S)-4-(cyclopropylethynyl)-4-(1,1-difluoroethyl)-7-((3-((dimethylamino)methyl)-1H-pyrazol-1-yl)methyl)-6-fluoro-3,4-dihydroquinazolin-2(1H)-one] | 101 nM |
| Cc1ccn(Cc2ccc3c(c2)NC(=O)N[C@]3(C#CC2CC2)C(F)(F)F)n1 [Example 127, (S)-4-(cyclopropylethynyl)-7-((3-methyl-1H-pyrazol-1-yl)methyl)-4-(trifluoromethyl)-3,4-dihydroquinazolin-2(1H)-one] | 103 nM |
| Cc1nn(Cc2cc3c(cc2F)[C@@](C#CC2CC2)(C(C)(F)F)NC(=O)N3)c(=O)n1C [Example 128, (S)-4-(cyclopropylethynyl)-4-(1,1-difluoroethyl)-7-((3,4-dimethyl-5-oxo-4,5-dihydro-1H-1,2,4-triazol-1-yl)methyl)-6-fluoro-3,4-dihydroquinazolin-2(1H)-one] | 115 nM |
| CC(C)(O)c1ccn(Cc2cc3c(cc2F)[C@@](C#CC2CC2)(C(C)(F)F)NC(=O)N3)n1 [Example 129, (S)-4-(cyclopropylethynyl)-4-(1,1-difluoroethyl)-6-fluoro-7-((3-(2-hydroxypropan-2-yl)-1H-pyrazol-1-yl)methyl)-3,4-dihydroquinazolin-2(1H)-one] | 171 nM |
